Reference: US9963474B2, “Mitochondria-targeted dicarbonyl sequestering compounds” (MEDICAL RESEARCH COUNCIL, priority 2013, dated 2018)

How the values were obtained:
BAECs [1] = assay: Quantification of MQE and QE in cells by LC-MS/MS; assay type: cell-based, bovine; conditions: 2 μM MitoG; for amounts of MQE and QE detected after exogenous methylglyoxal or glyoxal: 10 mM AG or 2 μM FCCP
Protocol: (A) and (B) BAECs were incubated with 2 μM MitoG for 1 h and sometimes supplemented with 10 mM AG or 2 μM FCCP. Methylglyoxal (A) or glyoxal (B) were then added, and after a further 3 h incubation the levels of MQE and QE in the cell layers were determined by LC-MS/MS relative to deuterated ISs. (C, D) BAECs were incubated in media containing low (5 mM) or high (30 mM) D-glucose with 2 μM MitoG for the times indicated. Levels of MQE (C) and QE (D) in the cell layers were determined by LC-MS/MS relative to deuterated ISs. Results are means±S.E. of four independent experiments. (E) BAECs were incubated for 4 h in the presence of 2 μM MitoG in media containing either 5 mM D-glucose (low), 30 mM D-glucose (high), 5 mM D-glucose/25 mM L-glucose (L-glucose), or 30 mM D-glucose/10 mM aminoguanidinium. Levels of MQE in the cell layers were determined by LC-MS/MS relative to deuterated ISs. (F) BAECs were incubated in media containing high (30 mM) D-glucose with 2 μM MitoG for 4 h with the indicated concentrations of the glyoxalase I inhibitor bromobenzyl glutathione cyclopentyl diester. Levels of MQE and QE in the cell layers were then determined by LC-MS/MS relative to deuterated ISs. Results are means±S.E. of three determinations. Results are means±S.E. of three (A, B) or four (C-E) independent experiments. *, P<0.05 or **, P<0.01, relative to untreated (A, B) or indicated (C-E) controls; ##, P<0.01 relative to cells treated with 250 μM 1,2-dicarbonyl.
For LC-MS/MS analysis of MitoG reaction products cells were incubated in T25 flasks (Nunc) with 2 μM MitoG at 37° C. Cell monolayers were washed (1 ml PBS), scraped into 1.5 ml PBS and pelleted by centrifugation (16,000 g for 2 min). The pellet was re-suspended in 250 μl 100% acetonitrile/0.1% spiked with deuterated internal standards (ISs) ([…] each of d15-MQE and d15-QE), vortexed and centrifuged (2×16,000 g for 15 min). Samples were dried under vacuum (Savant SpeedVac), re-suspended in 100 μl 20% acetonitrile/0.1% formic acid, vortexed, centrifuged (16,000 g for 10 min), transferred to silanised autosampler vials [Chromacol #1.5HRRV(S)], flushed and sealed under argon and then stored at −80° C. until LC-MS/MS analysis. Where specified, cells were subjected to acute glycaemia treatment and were incubated either in low glucose (5 mM D-glucose), high glucose (30 mM D-glucose), or in osmotic control medium (5 mM D-glucose+25 mM L-glucose) for 4 h.
LC-MS/MS analyses were carried out using a triple quadrupole mass spectrometer (Waters Xevo TQ-S) with an I-class Aquity LC system (Waters) attached. Samples were kept at 4° C. prior to injection by the autosampler of 10 μl into a 15 μl flow-through needle and RP-HPLC at 30° C. using a Luna 5 Phenyl-Hexyl column (1×50 mm, 5 μm; Phenomenex) with a Phenyl-Hexyl guard column (2×4 mm; Phenomenex). Buffers used were MS buffer A [0.1% (v/v) formic acid in water] and MS buffer B [95% acetonitrile/0.1% formic acid (both v/v)]. A gradient was run at […] as follows: 0-2 min—5% B; 2-3 min—5-25% B; 3-5 min—25-75% B; 5-7 min—75-100% B; 7-10 min—100% B; 10-12 min—100-5% B; 12-20 min—5% B. Eluant was diverted to waste from the mass spectrometer at 0-5 min and 16-20 min acquisition time using an in-line divert valve. […] Transitions used for quantification were as follows: MQE, 506>262; d15-MQE, 521>277; QE, 492>262 and d15-QE, 507>277. […]

[2] = system: C57Bl6/J mice with STZ-induced Type I diabetes; assay: STZ-induced Type I diabetes mouse model, diabetic complications in the heart; assay type: in vivo
Protocol: To determine the effects of MitoG-amide on diabetic complications in the heart a well-established mouse model of type I diabetes was used, based on destruction of the beta-cells in the pancreas by administration of the beta-cell toxin streptozotocin (STZ; obtainable from Selleck Chemicals, Munich, Germany). Mice that were 6-7 week old C57Bl6/J mice (>20 g) were administered STZ (50 mg/kg by intraperitoneal injection) on 5 consecutive days. The death of the beta-cells and the induction of the high blood glucose associated with Type I diabetes was confirmed by weekly blood glucose tests on mice tail vein blood sample. A blood glucose level >17 mmol/l was considered diabetic. For experiments, mice were divided into three groups: (a) control; (b) STZ-induced Type I diabetes; and (c) STZ-induced Type I diabetic animals treated with MitoG-amide (10 mg/kg body weight once per day via gavage). This was repeated for 12 weeks (FIG. 13). At the end of the protocol, mice underwent cardiac magnetic resonance imaging (MRI) measurement (FIG. 14) followed by left ventricular catheter-based Pressure/Volume (P/V) measurement (FIG. 15). The MRI and P/V loop measurements were performed on the same day and the MRI volume measures were used as correction for the P/V loop.
For the cardiac magnetic resonance imaging (MRI) measurement a standard cardiac MRI protocol with a 4.7T Bruker BioSpec system was performed 24 h after surgery. Anaesthesia was induced with 3% and maintained with 1.25% isoflurane in oxygen. Temperature was monitored with a rectal probe and maintained constant via a heated water blanket, respiration was monitored using a pillow connected to a piezoelectric transducer. Electrocardiogram (ECG) signals were monitored with neonatal graphite (3M) electrodes, placed over the front left and rear right paws.
A 12 cm diameter birdcage was used to transmit the signal and a 4 channel cardiac array coil was used for signal reception. The imaging protocol consisted of scout scans followed by ECG-gated fast imaging with steady state […] (FISP) slices (repetition time/echo time TR/TE 6/2.4 ms 13-20 frames, 3.5 cm field of view (FOV), 256 matrix, 1 mm slice thickness, bandwidth 64.1 kHz, flip angle (FA) 20°, 2 sampling average [number of excitations, NEX]), in the long-axis and in the short-axis to cover the whole heart. In post processing, volumes during different phases of the ECG were delineated and integrated over whole heart using Simpson's rule. Global functional parameters were obtained including ejection fraction, the fraction of blood ejected into the circulation during one heartbeat.
For the Pressure/Volume (P/V) measurement, left ventricular catheterization via the right carotid artery was carried out using a 1.2 F pressure-catheter (Scisense Inc., London, Canada).
The results of the long-term treatment of the STZ-induced Type I diabetes administered with MitoGamide on body weight, blood glucose and heart rate were compared with placebo-treated STZ mice and controls (FIG. 16). The blood glucose was measured on whole blood using Johnson and Johnson's OneTouch® Ultra Blood Glucose Monitoring System. The heart rate was measured during use of the P/V loop catheter and recorded.
To assess the effect of MitoGamide on the well-known detrimental effects of long-term hyperglycaemia in Type I diabetes heart function was measured by MRI and by P/V loop measurement (FIG. 17). Mice that were 6-7 week old C57Bl6/J mice (>20 g) were administered STZ (50 mg/kg by intraperitoneal injection) on 5 consecutive days. The death of the beta-cells and the induction of the high blood glucose associated with Type I diabetes was confirmed by weekly blood glucose tests on mice tail vein blood sample. A blood glucose level >17 mmol/l was considered diabetic. […]

C2C12 cells = assay: Protection against dicarbonyl-induced cell death, C2C12, MTS assay; assay type: cell-based, mouse; conditions: pre-treated 1 h, overnight; for protection against methylglyoxal-induced cell death: C2C12, 1 mM methylglyoxal; for protection against glyoxal-induced cell death: C2C12, 5 mM glyoxal
Protocol: (§1) Isolated RLM respiring on glutamate/malate were incubated with MitoG, methoxyphenylenediamine (MP) or butylTPP for 2 min, followed by 0.5 mM methylglyoxal or 5 mM glyoxal for 5 min. ADP was then added and the rate of oxygen consumption monitored at 37° C. (see FIGS. 12A & 12B). C2C12 cells were pre-treated with MitoG, methoxyphenylenediamine (MP) or butylTPP for 1 h before exposure to 1 mM methylglyoxal or 5 mM glyoxal (see FIGS. 12C & 12D). Following an overnight incubation, cell survival was determined using the MTS assay. Similar experiments were conducted in BAECs pre-treated with MitoG, MP or butylTPP. For all experiments, concentrations of methylglyoxal and glyoxal used were chosen based on results from studies conducted prior to the protection assays. In these prior studies, RLM or cells were exposed to a range of dicarbonyl concentrations, and the phosphorylating rates of respiration or cell survival were evaluated. The results of these earlier experiments are shown in insets, and dicarbonyl concentrations that had caused significant respiratory depression or cell death were chosen for use in the protection assays. Data for all groups were normalized against untreated controls. For RLM, the rate of respiration by untreated controls was taken to be 100%; for cells, cell survival of untreated controls was taken to be 100%. Results are expressed as mean±S.E. of three independent experiments. MitoG was protective against methylglyoxal-induced respiratory depression and both methylglyoxal- and glyoxal-induced cell death in C2C12 cells and BAECs. […] In FIG. 12 the symbols *, ** respectively indicate that P<0.05 or P<0.01 relative to dicarbonyl-only groups; and the symbols +, ++ respectively indicate that P<0.05 or P<0.01 relative to untreated controls.

[3] = system: RLM respiring on glutamate/malate; assay: Protection against dicarbonyl-induced respiratory depression in isolated RLM; design: species or system rat; conditions: 37° C.; for protection against methylglyoxal-induced respiratory depression: 0.5 mM methylglyoxal; for protection against glyoxal-induced respiratory depression: 5 mM glyoxal
Protocol: as §1

BAECs [4] = assay: Protection against dicarbonyl-induced cell death, BAECs, MTS assay; assay type: cell-based, bovine; conditions: pre-treated 1 h, overnight
Protocol: as §1

[5] = 10 mg/kg once per day via gavage, 12 weeks
[6] = MRI, 10 mg/kg once per day via gavage
[7] = P/V loop, 10 mg/kg once per day via gavage

SMILES	amounts of MQE and QE detected after exogenous methylglyoxal or glyoxal (BAECs [1])	protection against methylglyoxal-induced cell death (C2C12 cells)	protection against glyoxal-induced cell death (C2C12 cells)	protection against methylglyoxal-induced respiratory depression [3]	protection against glyoxal-induced respiratory depression [3]	protection against glyoxal-induced cell death (BAECs [4])	protection against methylglyoxal-induced cell death (BAECs [4])	other results
N#CC(C#N)=NNc1ccc(OC(F)(F)F)cc1 [FCCP, carbonylcyanide p-trifluoromethoxyphenylhydrazone]	reduced							formation of MQE/QE under high glucose (BAECs [1]; high glucose, with uncoupler): blocked
Nc1ccc(C(=O)NCCC[P+](c2ccccc2)(c2ccccc2)c2ccccc2)cc1N [MitoGamide, [3-(3,4′-Diaminobenzoylamino)-prop-1-yl]triphenylphosphonium m esylate]								effect on STZ-induced decrease in body weight [2, 5]: neither of which were affected; effect on STZ-induced increase in blood glucose [2, 5]: neither of which were affected; heart rate [2, 5]: neither STZ- or MitoGamide-treatment affected heart rate; increase in diastolic stiffness in diabetic mice ([2]; MRI-corrected P/V loops, 10 mg/kg once per day via gavage): prevented; end diastolic volume impaired by STZ [2, 6]: not ameliorated; systolic ejection fraction [2, 6]: neither STZ nor MitoGamide had any effect; increase in end diastolic pressure in diabetic mice [2, 7]: prevented; left ventricular diastolic time constant (Tau Weiss) impaired by STZ [2, 7]: not ameliorated; oxidative damage in the heart (4-hydroxynonenal staining) ([2]; heart histology, antibody against 4HNE): decreased oxidative damage
N=C(N)NN [AG, aminoguanidine]	reduced							formation of MQE under high glucose (BAECs [1]; 30 mM D-glucose/10 mM aminoguanidinium, 4 h): decreased
CCCC[P+](c1ccccc1)(c1ccccc1)c1ccccc1 [ButylTPP]		not significantly protective	not significantly protective	not significantly protective	not significantly protective	not significantly protective	not significantly protective	
NC(CCC(=O)NC(CSCc1ccc(Br)cc1)C(=O)NCC(=O)OC1CCCC1)C(=O)OC1CCCC1 (centres unmarked) [bromobenzyl glutathione cyclopentyl diester]								amount of MQE and QE under high glucose (BAECs [1]; high glucose, 4 h, glyoxalase I inhibitor): increased
CCCCCCOc1ccc(N)c(N)c1 [HP, 4-Hexyloxybenzene-1,2-diamine]		not significantly protective	not significantly protective	not significantly protective	not significantly protective	not significantly protective	not significantly protective	
